Source: patent US20040132095A1, “Method of selecting antimicrobial agent and method of using the same” (priority 2001, published 2004)

Columns and labels:
[1] = tested on: Chaetomium elatum; assay: Data base search for antimicrobial agent, filamentous fungus (Example 6); type: cell-based
[2] = tested on: all the other isolated bacteria; assay: Data base search / sterilizing experiment, other isolated strains of Example 1 slime; type: cell-based; conditions: strains isolated from slime of Example 1
[3] = tested on: Deinococcus geothermalis; assay: Data base search and sterilizing experiment (Example 9); type: cell-based
[4] = tested on: total microbe cells / slime; assay: Origin treatment of wet broke chest in paper manufacturing process, total cell count and slime deposition (Example 9)
Method: (§1) Samples were collected at various locations in the paper manufacturing process courses and, for each of them, total microbe cell count was measured by microscope direct count method after staining with DAPI, whereupon 48 strains were isolated by agar plate culture to determine the proportion of existence of Deinococcus geothermalis among the 48 strains based on the base sequence of 16S rDNA. Based on the results of the search for slime conrol agent, the treatment scheme was revised to the operation in which a slime control agent containing HPGHC as the effective component is added as the origin treating agent to the wet broke chest three times a day each at a dose rate of 25 milligrams per liter of the retained liquor (chest capacity), while supplying the white water circulation system with a slime control agent containing DBNPA as the effective component in the conventional manner. At the occasion of the second shut down after the revision of the treatment scheme and at an occasion directly before it, samples were collected at various locations in the paper manufacturing process courses, for which total microbe cell count and the proportion of existence of Deinococcus geothermalis were determined in the same way as the former practice. It was found thereby that the total microbe counts were unchanged and within the range of ordinary fluctuation, but Deinococcus geothermalis became undetectable.

[5] = tested on: slime; assay: Laboratory torque type slime formation testing apparatus, artificial white water (Example 1); type: cell-based
Source text: A torque type slime formation testing apparatus was used, which is described in Japanese Patent Kokai Hei 9-75065 A. The testing apparatus is constructed from a stationary outer cylinder and a rotatable inner cylinder disposed concentrically with the outer cylinder leaving a free space therebetween for allowing flow of water therein while rotating the inner cylinder so as to permit to grow slime formed on the surface of the inner […]. To this testing apparatus, an artificial white water (containing 142 mg/liter of soluble starch and 11.6 mg/liter of ammonium sulfate and having a pH of 7.0) was supplied continuously at a temperature of 30° C. so as to maintain a residence time in the apparatus of 20 minutes, while adding thereto intermittently a slime control agent containing as the main component DBNPA (dibromonitrilopropionamide) three times a day each for a duration of 15 minutes at a contact concentration of 2.5 mg/liter. […] Each isolated strain was taken up on a platinum loop and was suspended in 0.4 ml of TE buffer solution (10 mM Tris-HCl, 1 mM EDTA, pH 8.0) retained allotted in a 1.5 ml microcentrifugal tube. Based on the above results, test experiment was carried out under the same experimental condition except that HPGHC was used as the slime control agent so as to maintain the concentration thereof in the system at 0.3 mg/liter. […] This HPGHC-treated slime collected at this occasion was tested by analysis of microbial biota thereof in the same manner as above, whereby Microbacterium sp. was not detected.

[6] = tested on: Deinococcus geothermalis; assay: Origin treatment of wet broke chest in paper manufacturing process, Deinococcus geothermalis among 48 isolated strains (Example 9)
Method: as §1

[7] = tested on: Microbacterium sp. (microbe number 6354); assay: Data base search for antimicrobial agent, confirmed by sterilizing experiment, dominant microbe of Example 1 slime; type: cell-based
[8] = tested on: Ralstonia eutropha; type: cell-based; conditions: data base search
[9] = tested on: microbe belonging to a genus Microbacterium (microbe number 2401); assay: Data base search for antimicrobial agent, dominant microbe of yellow-colored slime (Example 4); type: cell-based
[10] = tested on: Gram-negative bacterium near-related to Riemerella; assay: Data base search and sterilizing experiment (Example 9); type: cell-based
[11] = tested on: Deinococcus geothermalis; assay: Data base search and sterilizing experiment, Example 2; type: cell-based; conditions: data base search, confirmed by sterilizing experiment
[12] = tested on: pink-colored bacterial slime / Deinococcus geothermalis; assay: Slime control treatment at paper manufacturing factory D, white water circulation system (Example 2); conditions: slime formed during long term slime control with DBNPA based agent
[13] = tested on: Deinococcus geothermalis; assay: Analysis of microbial biota of white water of the machine, factory D (Example 3); conditions: DBNPA treatment
Source text: In the paper manufacturing factory D, another machine of a type similar to that used in Example 2 operating under conditions similar to those in Example 2 is installed adjacent to the machine of Example 2. In this machine, no occurrence of pink-colored […] recognized even at the occasion at which the pink-colored slime occurred in the machine of Example 2. Therefore, procedures corresponding to those in Example 1 were proceeded, wherein each 36 strains were isolated using agar medium and analysis of the microbial biota was carried out. Since a large number of strains are to be tested, each 16S rDNA obtained from each strain was treated by digestion with three kinds of restriction enzymes (BstUI, RsaI and HhaI) isolatedly to effect TRFLP analysis, in order to group preliminarily into classes of microbes of same reaction pattern, whereupon identification was effected based on the base sequence as identification parameter. It was recognized thereby that the occupation proportion of Deinococcus geothermalis in the isolated 36 strains was calculated to be only 2.7% (one strain). Since the machine construction is similar, this machine would suffer from same trouble by occurrence of pink-colored slime after a prolonged operation. […]

[14] = tested on: slime; assay: Monitoring demonstrators (slime testers) at paper machine of factory D (Example 3)
Method: Since the machine construction is similar, this machine would suffer from same trouble by occurrence of pink-colored slime after a prolonged operation. Therefore, monitoring of machine by prior practice was proceeded more […] the same time, the analysis of the microbial biota of white water same as in the above test method was performed at a more frequent interval, namely, at an interval of 7-14 days (with increase in the number of isolated strains to 48). […] On the other hand, white water devoid of DBNPA content was reserved by storing in a storage reservoir the white water taken from its supply line during a time interval discrepant from the DBNPA injection period, to preserve a reagent-free white water for the test.

[15] = tested on: Rhizobium sp.; assay: Data base search and sterilizing experiment (Example 9); type: cell-based
[16] = tested on: slime in CP tube; assay: Slime control treatment of clear white water pit / CP line, paper machine Y (Example 11); conditions: intermittent introduction into the clear white water pit twice a day
Method: In a paper machine Y (a daily throughput of 410 tons, slightly coated paper, pH 7.5) of a paper manufacturing factory B, occurrence of light brown-colored defects having sizes of about 5 mm diameter was recognized frequently since 11th day from the start of operation, caused to result in cessation of operation. The defect portions were cut out from the paper and three cut out pieces (about 8.1 mg) were cut into 2 mm squares, which were placed in a 2 ml microcentrifugal tube made of plastic material. To this tube, 1 ml of a DNA-extracting buffer solution (100 mM Tris-Cl, 100 mM EDTA-Na, 100 mM Na2HPO4 and 1.5 M NaCl (pH 8.0)) was added, followed by standing still at room temperature for 30 minutes to cause the paper pieces to be impregnated sufficiently with the solution.
From the above analysis results, it was assumed that the defect was caused by introduction of the slime formed in CP tube into the papermaking process course upon detachment or the like. In the CP line, clear white water obtained by treating white water through a polydiscfilter was used, which had hitherto not been subjected to a slime control treatment. Therefore, treatment was now applied by intermittent introduction of a slime control agent containing as the main component 2,2-dibromo-3-nitrilopropionamide into the clear white water pit twice a day.

[17] = tested on: Acidovorax temperans; assay: Data base search and sterilizing experiment (Example 9); type: cell-based
[18] = tested on: Sphingomonas; assay: as above; type: cell-based
[19] = after HPGHC origin treatment plus DBNPA
[20] = after HPGHC origin treatment plus DBNPA, Clear white water in clear white water pit
[21] = after HPGHC origin treatment plus DBNPA, Dry broke chest
[22] = after HPGHC origin treatment plus DBNPA, Wet broke chest
[23] = after HPGHC origin treatment plus DBNPA, White water in white water silo
[24] = second shut down after revision of the treatment scheme (HPGHC to wet broke chest plus DBNPA)
[25] = DBNPA 2 mg/l or even lower, contact time 30 minutes

For `O=C(CBr)OCC=CCOC(=O)CBr` [BBAB, 1,4-bis-(bromoacetoxy)-2-butene], the “susceptibility of Chaetomium elatum” value [1] was “non-susceptible”.

`O=C(C(Cl)=NO)c1ccc(O)cc1` [HPGHC, 2-(p-hydroxyphenyl)glyoxylohydroximoyl chloride] was tested, and the “susceptibility of all other isolated bacterium strains” value [2] was “susceptible”, the “sterilization of Deinococcus geothermalis” value ([3]; HPGHC system internal concentration 20 mg/l for 20 minutes, data base) was “sterilized” and the “amount of deposition of slime” value ([4]; HPGHC 25 mg per liter to wet broke chest three times a day plus DBNPA to white water circulation system) was “reduced considerably”. For the same molecule, the “total microbe cell count in cling substance from the suction box” value [4, 19] was 3.5×10^9 cells per one gram of dry substance, the Total cell count [4, 20] was 3.1 × 10^7 cells/ml and the Total cell count [4, 21] was 6.0 × 10^7 cells/ml. The Total cell count [4, 22] was 5.3 × 10^7 cells/ml, the Total cell count [4, 23] was 4.8 × 10^7 cells/ml and the total microbe counts [4, 24] was “unchanged”. The “Microbacterium sp. in treated slime (analysis of microbial biota)” value ([5]; HPGHC 0.3 mg/liter) was “not detected”, the “amount of cling substance” value ([5]; HPGHC 0.3 mg/liter) was “remarkably decreased” and the slime thickness ([5]; HPGHC maintained at 0.3 mg/liter in the system, same test period (12 days)) was 3 μm. For the same molecule, the “Deinococcus geothermalis in cling substance from the suction box” value [6, 19] was “no Deinococcus geothermalis detected”, the “Number of strains of Deinococcus geothermal is (number of colonies among 48 strains)” value (from here on “Number … (number of colonies among 48 strains)”) [6, 20] was 0 and the “Number … (number of colonies among 48 strains)” value [6, 21] was 0. For the same molecule, the “Number … (number of colonies among 48 strains)” value [6, 22] was 0, the “Number … (number of colonies among 48 strains)” value [6, 23] was 0 and the “Deinococcus geothermalis in samples from process courses” value [6, 24] was “undetectable”. For the same molecule, the minimum effective concentration ([7]; from data base for search for antimicrobial agent) was 0.2 mg/L.

With `OCl` [sodium hypochlorite] the “ranking of effectiveness for registered Ralstonia eutropha” value [8] was “most effective”.

For `N#CC(Br)(Br)C(N)=O` [DBNPA, 2,2-dibromo-3-nitrilopropionamide], the “resistance of dominant microbe (microbe number 2401)” value [9] was “resistance”, the “susceptibility of all other isolated bacterium strains” value [2] was “susceptible” and the “susceptibility of Chaetomium elatum” value [1] was “non-susceptible”. The “living microbe cells extinct” value [10, 25] was 99%, the “susceptibility of Gram-negative bacterium near-related to Riemerella” value ([10]; data base search) was “susceptible” and the “sterilization of Deinococcus geothermalis” value ([3]; DBNPA 30 mg/l for 30 minutes) was “completely not sterilized”. For the same molecule, the “resistance of Deinococcus geothermalis” value ([3]; data base search) was “resistant”, the “resistance of Deinococcus geothermalis” value [11] was “resistant” and the “occupation proportion of Deinococcus geothermalis in the entire microbe population” value [12] was 46%. The slime layer thickness ([5]; DBNPA 2.5 mg/liter contact concentration, three times a day for 15 minutes, 12 days, pH 7.0, 30° C.) was 119 μm, the “occupation proportion of Deinococcus geothermalis” value ([13]; fifth test cycle on the 47th day, 6 of 48 strains) was 12.5% and the “occupation proportion of Deinococcus geothermalis” value ([13]; up to the fourth test cycles, 48 strains) was 2-4%. The “sign of growth of slime in demonstrator” value ([14]; fifth test cycle, 47th day, No. 3 demonstrator inorganic bromine compound, No. 1 and No. 2 demonstrators DBNPA) was “sign of growth of slime was recognized”, the “deposited amount of slime in No. 2 demonstrator” value ([14]; simulator supplied with DBNPA-containing agent, after the change of the machine agent) was “increased gradually” and the “occurrence of pink-colored slime in No. 2 demonstrator” value ([14]; simulator supplied with DBNPA-containing agent, day after the change of the antimicrobial agent) was “visually recognized on the 14th day”. For the same molecule, the “living microbe cells extinct” value [15, 25] was 99%, the “susceptibility of Rhizobium Sp.” value ([15]; data base search) was “susceptible” and the “occurrence of defect on paper” value [16] was “removed”. The “occurrence of slime formation in the CP tube” value [16] was “decreased remarkably”, the “resistance of Microbacterium sp. to the agent” value ([7]; data base search, confirmed by sterilizing experiment) was “resistance” and the “living microbe cells extinct” value [17, 25] was 99%. For the same molecule, the “susceptibility of Acidovorax temperans” value ([17]; data base search) was “susceptible”, the “living microbe cells extinct” value [18, 25] was 99% and the “susceptibility of Shingomonas” value ([18]; data base search) was “susceptible”.
